Reference: ChEMBL document CHEMBL1157039, “Synthesis and characterization of novel fatty acid analogs of cholesterol: in vitro antimicrobial activity” (2010)
In brackets after ≈: the same amount, converted by molar mass.

Legend:
Streptococcus mutans [1] = assay: Antibacterial activity against Streptococcus mutans UA159 MTCC 497 after 24 hrs by disk diffusion method; type: functional
Streptococcus pyogenes [2] = assay: Antibacterial activity against recultured Streptococcus pyogenes after 24 hrs by disk diffusion method; type: functional
Staphylococcus aureus [3] = assay: Antibacterial activity against Staphylococcus aureus ATCC 25923 after 24 hrs by disk diffusion method; type: functional
Pseudomonas aeruginosa [4] = assay: Antibacterial activity against Pseudomonas aeruginosa ATCC 27853 after 24 hrs by disk diffusion method; type: functional
Salmonella enterica [5] = assay: Antibacterial activity against recultured Salmonella Typhimurium after 24 hrs by disk diffusion method; type: functional, Salmonella enterica subsp. enterica serovar Typhimurium
Escherichia coli [6] = assay: Antibacterial activity against Escherichia coli ATCC 25922 after 24 hrs by disk diffusion method; type: functional
Streptococcus mutans [7] = assay: Antibacterial activity against Streptococcus mutans UA159 MTCC 497 after 24 hrs by microdilution method; type: functional; conditions: UA159 MTCC 497, 24 h
Streptococcus pyogenes [8] = assay: Antibacterial activity against recultured Streptococcus pyogenes after 24 hrs by microdilution method; type: functional
Staphylococcus aureus [9] = assay: Antibacterial activity against Staphylococcus aureus ATCC 25923 after 24 hrs by microdilution method; type: functional; conditions: ATCC 25923, 24 h
Pseudomonas aeruginosa [10] = assay: Antibacterial activity against Pseudomonas aeruginosa ATCC 27853 after 24 hrs by microdilution method; type: functional; conditions: ATCC 27853, 24 h
Salmonella enterica [11] = assay: Antibacterial activity against recultured Salmonella Typhimurium after 24 hrs by microdilution method; type: functional, Salmonella enterica subsp. enterica serovar Typhimurium
Escherichia coli [12] = assay: Antibacterial activity against Escherichia coli ATCC 25922 after 24 hrs by microdilution method; type: functional; conditions: ATCC 25922, 24 h
Candida albicans [13] = assay: Antifungal activity against Candida albicans ATCC 24433 after 48 to 72 hrs by disk diffusion method; type: functional
Pichia kudriavzevii [14] = assay: Antifungal activity against Candida krusei ATCC 6528 after 48 to 72 hrs by disk diffusion method; type: functional
Candida parapsilosis [15] = assay: Antifungal activity against Candida parapsilosis ATCC 22019 after 48 to 72 hrs by disk diffusion method; type: functional
Cryptococcus neoformans [16] = assay: Antifungal activity Cryptococcus neoformans after 48 to 72 hrs by disk diffusion method; type: functional
Candida albicans [17] = assay: Antifungal activity against Candida albicans ATCC 24433 after 48 to 72 hrs by microdilution method; type: functional
Pichia kudriavzevii [18] = assay: Antifungal activity against Candida krusei ATCC 6528 after 48 to 72 hrs by microdilution method; type: functional
Candida parapsilosis [19] = assay: Antifungal activity against Candida parapsilosis ATCC 22019 after 48 to 72 hrs by microdilution method; type: functional; conditions: Lodderomyces parapsilosis
Cryptococcus neoformans [20] = assay: Antifungal activity Cryptococcus neoformans after 48 to 72 hrs by microdilution method; type: functional
Candida albicans [21] = assay: Antifungal activity against Candida albicans ATCC 24433 at 30 ug/mL after 48 to 72 hrs by disk diffusion method; type: functional; conditions: read-out: DIZ
Pichia kudriavzevii [22] = assay: Antifungal activity against Candida krusei ATCC 6528 at 30 ug/mL after 48 to 72 hrs by disk diffusion method; type: functional; conditions: read-out: DIZ
Candida parapsilosis [23] = assay: Antifungal activity against Candida parapsilosis ATCC 22019 at 30 ug/mL after 48 to 72 hrs by disk diffusion method; type: functional; conditions: Lodderomyces parapsilosis, read-out: DIZ
Cryptococcus neoformans [24] = assay: Antifungal activity Cryptococcus neoformans at 30 ug/mL after 48 to 72 hrs by disk diffusion method; type: functional; conditions: read-out: DIZ
Streptococcus mutans [25] = assay: Antibacterial activity against Streptococcus mutans UA159 MTCC 497 at 30 ug/mL after 24 hrs by disk diffusion method; type: functional; conditions: UA159 MTCC 497, 24 h, read-out: DIZ
Streptococcus pyogenes [26] = assay: Antibacterial activity against recultured Streptococcus pyogenes at 30 ug/mL after 24 hrs by disk diffusion method; type: functional; conditions: read-out: DIZ
Staphylococcus aureus [27] = assay: Antibacterial activity against Staphylococcus aureus ATCC 25923 at 30 ug/mL after 24 hrs by disk diffusion method; type: functional; conditions: ATCC 25923, 24 h, read-out: DIZ
Pseudomonas aeruginosa [28] = assay: Antibacterial activity against Pseudomonas aeruginosa ATCC 27853 at 30 ug/mL after 24 hrs by disk diffusion method; type: functional; conditions: ATCC 27853, 24 h, read-out: DIZ
Salmonella enterica [29] = assay: Antibacterial activity against recultured Salmonella Typhimurium at 30 ug/mL after 24 hrs by disk diffusion method; type: functional, Salmonella enterica subsp. enterica serovar Typhimurium; conditions: read-out: DIZ
Escherichia coli [30] = assay: Antibacterial activity against Escherichia coli ATCC 25922 at 30 ug/mL after 24 hrs by disk diffusion method; type: functional; conditions: ATCC 25922, 24 h, read-out: DIZ

| Structure (SMILES) | diameter of the inhibition zone (DIZ) (Streptococcus mutans [1]) [mm] | diameter of the inhibition zone (DIZ) (Streptococcus pyogenes [2]) [mm] | diameter of the inhibition zone (DIZ) (Staphylococcus aureus [3]) [mm] | diameter of the inhibition zone (DIZ) (Pseudomonas aeruginosa [4]) [mm] | diameter of the inhibition zone (DIZ) (Salmonella enterica [5]) [mm] | diameter of the inhibition zone (DIZ) (Escherichia coli [6]) [mm] | MIC (Streptococcus mutans [7]) [µg/mL] | MIC (Streptococcus pyogenes [8]) [µg/mL] | MIC (Staphylococcus aureus [9]) [µg/mL] | MIC (Pseudomonas aeruginosa [10]) [µg/mL] | MIC (Salmonella enterica [11]) [µg/mL] | MIC (Escherichia coli [12]) [µg/mL] | diameter of the inhibition zone (DIZ) (Candida albicans [13]) [mm] | diameter of the inhibition zone (DIZ) (Pichia kudriavzevii [14]) [mm] | diameter of the inhibition zone (DIZ) (Candida parapsilosis [15]) [mm] | diameter of the inhibition zone (DIZ) (Cryptococcus neoformans [16]) [mm] | MIC (Candida albicans [17]) [µg/mL] | MIC (Pichia kudriavzevii [18]) [µg/mL] | MIC (Candida parapsilosis [19]) [µg/mL] | MIC (Cryptococcus neoformans [20]) [µg/mL] | further results |
| --- | --- | --- | --- | --- | --- | --- | --- | --- | --- | --- | --- | --- | --- | --- | --- | --- | --- | --- | --- | --- | --- |
| CC(C)CCC[C@@H](C)[C@H]1CC[C@H]2[C@@H]3CC=C4C[C@@H](OC(=O)CCCCCCCCC5CO5)CC[C@]4(C)[C@H]3CC[C@]12C (stereo not given in full) | 21.9 | 20.5 | 21.9 | 18.5 | 17.2 | 19.9 | 32 (≈ 56.2 µM) | 32 (≈ 56.2 µM) | 32 (≈ 56.2 µM) | 64 (≈ 112 µM) | 64 (≈ 112 µM) | 32 (≈ 56.2 µM) | 19.6 | 17.8 | 16.9 | 15.8 | 1 (≈ 1.76 µM) | 128 (≈ 225 µM) | 8 (≈ 14.1 µM) | 32 (≈ 56.2 µM) |  |
| C=CCCCCCCCCC(=O)O[C@H]1CC[C@@]2(C)C(=CC[C@H]3[C@@H]4CC[C@H]([C@H](C)CCCC(C)C)[C@@]4(C)CC[C@@H]32)C1 | 20.5 | 19.2 | 19.8 | 16.2 | 16.4 | 16.5 | 32 (≈ 57.9 µM) | 32 (≈ 57.9 µM) | 64 (≈ 116 µM) | 32 (≈ 57.9 µM) | 128 (≈ 231 µM) | 128 (≈ 231 µM) | 18.3 | 16.1 | 15.1 | 12.1 | 2 (≈ 3.62 µM) | 256 (≈ 463 µM) | 32 (≈ 57.9 µM) | 128 (≈ 231 µM) |  |
| CCCCCCCC/C=C\CCCCCCCC(=O)O[C@H]1CC[C@@]2(C)C(=CC[C@H]3[C@@H]4CC[C@H]([C@H](C)CCCC(C)C)[C@@]4(C)CC[C@@H]32)C1 [CHOLESTERYL OLEATE] | 18.9 | 17.2 | 17.8 | 14.3 | 15.1 | 16.1 | 64 (≈ 98.3 µM) | 64 (≈ 98.3 µM) | 64 (≈ 98.3 µM) | 128 (≈ 197 µM) | 128 (≈ 197 µM) | 128 (≈ 197 µM) | 18.7 | 16.8 | 15.7 | 15.1 | 2 (≈ 3.07 µM) | 256 (≈ 393 µM) | 16 (≈ 24.6 µM) | 32 (≈ 49.1 µM) |  |
| OC(Cn1cncn1)(Cn1cncn1)c1ccc(F)cc1F [FLUCONAZOLE] |  |  |  |  |  |  |  |  |  |  |  |  |  |  |  |  | 1 (≈ 3.27 µM) | 64 (≈ 209 µM) | 8 (≈ 26.1 µM) | 8 (≈ 26.1 µM) | zone of inhibition at 30 µg/mL (Candida albicans [21]): 20 mm; zone of inhibition at 30 µg/mL (Pichia kudriavzevii [22]): 20 mm; zone of inhibition at 30 µg/mL (Candida parapsilosis [23]): 18 mm; zone of inhibition at 30 µg/mL (Cryptococcus neoformans [24]): 19 mm |
| CC(C)CCC[C@@H](C)[C@H]1CC[C@H]2[C@@H]3CC=C4C[C@@H](OC(=O)CCCCCCCCC(Br)CBr)CC[C@]4(C)[C@H]3CC[C@]12C (stereo not given in full) | 20.3 | 18.8 | 19.5 | 15.1 | 16.1 | 16.4 | 32 (≈ 44.9 µM) | 32 (≈ 44.9 µM) | 64 (≈ 89.8 µM) | 128 (≈ 180 µM) | 128 (≈ 180 µM) | 128 (≈ 180 µM) | 19.5 | 17.5 | 16.8 | 15.9 | 1 (≈ 1.4 µM) | 128 (≈ 180 µM) | 8 (≈ 11.2 µM) | 32 (≈ 44.9 µM) |  |
| CC(C)CCC[C@@H](C)[C@H]1CC[C@H]2[C@@H]3C[C@@H](Br)[C@@]4(Br)C[C@@H](OC(=O)CCCCCCCCC(Br)CBr)CC[C@]4(C)[C@H]3CC[C@]12C (stereo not given in full) | 23.1 | 23.3 | 22.5 | 17.1 | 21.3 | 20.5 | 32 (≈ 36.7 µM) | 32 (≈ 36.7 µM) | 32 (≈ 36.7 µM) | 64 (≈ 73.3 µM) | 64 (≈ 73.3 µM) | 32 (≈ 36.7 µM) | 17.8 | 15.5 | 14.4 | 13.8 | 4 (≈ 4.58 µM) | 512 (≈ 587 µM) | 64 (≈ 73.3 µM) | 64 (≈ 73.3 µM) |  |
| C=CCCCCCCCCC(=O)O[C@H]1CC[C@]2(C)[C@H]3CC[C@]4(C)[C@@H]([C@H](C)CCCC(C)C)CC[C@H]4[C@@H]3C[C@@H](Br)[C@@]2(Br)C1 | 21.5 | 20.2 | 20.1 | 17.1 | 16.2 | 19.8 | 32 (≈ 44.9 µM) | 64 (≈ 89.8 µM) | 64 (≈ 89.8 µM) | 512 (≈ 718 µM) | 128 (≈ 180 µM) | 128 (≈ 180 µM) | 15.5 | 13.4 | 12.8 | 12.7 | 16 (≈ 22.4 µM) | 256 (≈ 359 µM) | 256 (≈ 359 µM) | 128 (≈ 180 µM) |  |
| O=C(N[C@H](CO)[C@H](O)c1ccc([N+](=O)[O-])cc1)C(Cl)Cl [CHLORAMPHENICOL] |  |  |  |  |  |  | 32 (≈ 99 µM) | 32 (≈ 99 µM) | 32 (≈ 99 µM) | 32 (≈ 99 µM) | 32 (≈ 99 µM) | 32 (≈ 99 µM) |  |  |  |  |  |  |  |  | zone of inhibition at 30 µg/mL (Streptococcus mutans [25]): 26.8 mm; zone of inhibition at 30 µg/mL (Streptococcus pyogenes [26]): 22.4 mm; zone of inhibition at 30 µg/mL (Staphylococcus aureus [27]): 21 mm; zone of inhibition at 30 µg/mL (Pseudomonas aeruginosa [28]): 17.1 mm; zone of inhibition at 30 µg/mL (Salmonella enterica [29]): 25.2 mm; zone of inhibition at 30 µg/mL (Escherichia coli [30]): 20 mm |
| CCCCCCC(O)C/C=C\CCCCCCCC(=O)O[C@H]1CC[C@@]2(C)C(=CC[C@H]3[C@@H]4CC[C@H]([C@H](C)CCCC(C)C)[C@@]4(C)CC[C@@H]32)C1 (stereo not given in full) | 22.8 | 22.6 | 22.1 | 16.5 | 21.1 | 20.4 | 32 (≈ 48 µM) | 32 (≈ 48 µM) | 32 (≈ 48 µM) | 128 (≈ 192 µM) | 32 (≈ 48 µM) | 32 (≈ 48 µM) | 20.3 | 18.7 | 17.8 | 16.9 | 1 (≈ 1.5 µM) | 64 (≈ 95.9 µM) | 8 (≈ 12 µM) | 8 (≈ 12 µM) |  |
| CCCCC/C=C\CCC(O)CCCCCCCC(=O)O[C@H]1CC[C@@]2(C)C(=CC[C@H]3[C@@H]4CC[C@H]([C@H](C)CCCC(C)C)[C@@]4(C)CC[C@@H]32)C1 (stereo not given in full) | 17.3 | 16.8 | 17.1 | 8.8 | 14.8 | 9.6 | 64 (≈ 95.9 µM) | 128 (≈ 192 µM) | 64 (≈ 95.9 µM) | 128 (≈ 192 µM) | 128 (≈ 192 µM) | 512 (≈ 767 µM) | 22.5 | 20.7 | 19.8 | 19.1 | 1 (≈ 1.5 µM) | 64 (≈ 95.9 µM) | 8 (≈ 12 µM) | 8 (≈ 12 µM) |  |
